Measurements published in the NIST ThermoML archive (doi:10.1021/je0302147).
Numbers after ± are expanded uncertainties.

Legend:
[1] = refractive index (Na D-line) (dimensionless); conditions: 298.15 K, 101.33 kPa, Liquid
[2] = 298.15 K, 101.33 kPa, Liquid; for speed of sound: Sing-around technique in a fixed-path interferometer

SMILES	refractive index ([1]; Standard Abbe refractometry)	mass density [2] [kg/m3]	speed of sound [2] [m/s]	refractive index [1]	mass density ([2]; Vibrating tube method) [kg/m3]
CCCCCCCC[n+]1ccn(C)c1.[Cl-] [1-methyl-3-octylimidazolium chloride]	1.5058 ± 0.00069	1007 ± 1.6	1382 ± 4	–	–
CCOC(C)(C)CC [1,1-dimethylpropyl ethyl ether]	–	–	1096 ± 2	1.38857	760.5
CCO [ethanol]	–	–	1143 ± 2	1.3592	785.22
